The term pEC50 denotes the negative decadic logarithm of the EC50, by convention in mol/L. Read a low pEC50 as a large EC50.

These results are taken from patent US20180071280A1, “MODULATORS OF CELL DEATH PROCESSES” (URIFER LTD., priority 2015, published 2018).

pEC50: −log10 of the molar value. “Also recorded” adds a separate entry of the source. Counter-ions that a name gives are not always drawn.

In data set [1] the test system is normal human fibroblasts (Hfb). Kind of data set: MultiTox-Fluor cytotoxicity assay in normal human fibroblasts. The format is cell-based. Here is the method:
Cell lines (HCT116, ht29, Rko, Hep3B, SW48, SW620, MDA-MB-231, PANC-1, su.86.86, Hfb) were obtained from the American Type Culture Collection (ATCC). Cell type authentication was carried out by microscope and DNA profiles using short tandem repeat analysis. Cells were grown in Minimum Essential Medium (MEM) containing 10% heat-inactivated Fetal Bovine Serum (FBS) or in Dulbecco's Modified Eagle's Medium (DMEM) containing 10% FBS, where specified, at 37° C. with 5% CO2. In general, the in-vitro experiments were carried out with 2. μM 0260 added into the growth medium. Dose response experiments included increasing 0260 concentrations. Cell death levels were determined using the MultiTox-Fluor Multiplex Cytotoxicity Assay (G9201, Promega, USA). In brief, 10,000 cells were seeded in black bottom 96 wells plate and were allowed to attach to the plate bottom for 16 h before the administration of various 0260 concentration in each well. Cell death levels were determined according to the manufacturer's protocol.
Cells death level was determined using the MultiTox-Fluor Multiplex Cytotoxicity Assay (G9201, Promega, USA) according to the manufacturer's protocol.

The subject of data set [2] is PARP-1. Description: PARP-1 poly-ADP-ribosylation activity in CC cells (WB). Type of data set: cell-based, human. Conditions: CC cells. How it is done: WB analyses were carried out as previously described before. In brief, cells were lysed in RIPA buffer mixed with protease inhibitors and separated on SDS-PAGE gel, transferred to PVDF membrane treated with 5% skim milk to exclude non-specific background and incubated with a primary antibody over-night. The membrane was incubated for 1 h with a secondary antibody conjugated to Horseradish Peroxidase (HRP). The protein-antibody complex was visualized using the SuperSignal West Pico Chemiluminescent Substrate (Thermo scientific, USA).

For data set [3], the target named is T1, Fer-PARP-1 complex (Homo sapiens, UniProt P16591).
T1 construct: endogenous in cells; host or cells: SW620 cells, nuclear lysates
Kind of data set: Co-immunoprecipitation of Fer and PARP-1 from SW620 nuclear lysates. Type of data set: cell-based.

Data set [4] is described as follows: Toxicological and histopathological studies in mice. The format is in vivo. How it is done: All animal experiments were performed according to the guidelines of the Institutional Animal Care and Use Committee of the Bar-Ilan University. Nude mice (Harlan, Israel) were transferred from ad libitum diet to a more strict diet 2 days before inoculation to lower blood glucose levels, and housed one per cage to ensure an even consumption of food. The diet was comprised of 3 g/mouse/day of standard chow, given at the same time every day. The food was consumed within an average time of 2 hours, consequently the mice were kept without food for the next 22 hours until the daily ration. The mice were kept on this diet throughout the experiment. Mice were inoculated with 1.5×10^6 SW620 CC cells and divided randomly into respective experimental groups. In brief, cells were harvested, counted under the microscope, concentrated by centrifugation (5 min at 500G) and re-suspended in Hank's balanced salt solution (Biological Industries, Israel). Before inoculation the cell suspension was mixed with Martial (BD biosciences, USA) in 1:1 ratio. Four days post-inoculation mice were randomized and placed in cages (n=4 per cage). Mice were injected intra-peritonealy every 12 h for 22 days with 25 mg/kg or 50 mg/kg of the micellar and non-micellar 0260 formulations, and control mice—with empty micelles or vehicles. Mice were sacrificed at day 22, tissues from relevant organs were fixed in paraffin, sectioned (7 μm sections) and stained with Hematoxylin and Eosin stain (H&E stain) for future histopathological evaluation. Blood samples were drawn from sacrificed mice.
Mice were sacrificed at day 22 of the xenograft experiments, as described above. Tissues from relevant organs and tumors were fixed in paraffin, sectioned (7 μm sections) and stained with Hematoxylin and Eosin stain (H&E stain) for histopathological evaluation as previously described. Blood samples were drawn by cardiac puncture. […] The serum was analyzed immediately using the Cobas 6000-501 chemistry analyzer (Roche Diagnostics, USA) according to the manufacturer's protocols for each assay.

In data set [5] the test system is mice sperm cells. Description: Sperm cell motility assay (CASA). The format is cell-based. To be noted: 2 μM. Here is the method: For isolation of spermatogenic cells, mice testes were removed from out-bred (ICR) mice and digested in Isolation Medium (DMEM with 2 mM glutamine, 1.5 mM sodium pyruvate, 10% fetal calf serum, 25 μg/ml ampicillin and 1× non-essential amino acids) with added 2 mg/ml collagenase (Sigma-Aldrich) for 5 min at 37° C., and washed twice. Extracellular DNA and proteins were removed with 1 unit/ml DNAse and 0.3 ml 0.5% trypsin at 37° C. for 5 min. Cells were filtered through a nylon mesh with 50 μm pores and incubated in Isolation Medium with 0260 or control for 24 h, and examined under the microscope. Mouse mature caudal spermatozoa were obtained by dissecting the cauda epididymis of male ICR mice and puncturing them in a dish containing 3 ml PBS to enable sperm release out of the epididymal tissue. The sperm suspension was filtered through a nylon mesh with 50 μm pores, centrifuged at 1000×g for 5 min and re-suspended in a buffer compatible with the experimental procedure.
Sperm cell motility was evaluated using the Computer-Aided Sperm Analysis (CASA). Samples (5 μl) were placed in standard count four chamber slide (Leja, Nieuw-Vennet, Netherlands) and analyzed by CASA device with IVOS software (version 12, Hamilton-Thorne Biosciences), acquiring up to ten sequels, 10 s long, for each sample, using parameters identifying mouse sperm motility. The proportion of hyper-activated ([…]) spermatozoa in each sample was determined using the SORT function of the CASA instrument. HAM was defined by curvilinear velocity (VCL)>90 μm/s, linearity (LIN) b20% and an amplitude of lateral head (ALH)>7 μm.

Data set [6] has as its target MAPK8 (JNK1) (Homo sapiens, UniProt P45983). Kind of data set: Kinase panel assay, MAPK8. Conditions: above threshold. The format is biochemical. How it is done:
Kinase panel assays were performed using the FRET-based Z′-LYTE, Lantha Screen and Adapta enzymatic kinase assay systems (Life Technologies, Carlsbad, Calif.), which were carried out using the SelectScreen Kinase Profiling Service (Life Technologies). The standard reaction contained 2 μM peptide substrate, ATP at the optimal assay concentration, 50 mM HEPES (pH 7.5), 0.01% Brij-35, 10 mM MgCl2, 1 mM EGTA, and the tested kinase. Each kinase was checked for its activity in duplicate data points (n=2) and was assayed following the detailed procedures outlined in the SelectScreen service. Percent inhibition or ATP displacement (For Lantha screen) represent a ratio of phosphorylated/ATP bound product formed in the presence of the compound compared with phosphorylated/ATP bound product formed in reactions containing 1% DMSO.
Kinome technique was used for monitoring phosphorylation events and phosphorylation targets of 0260-Fer interaction, using peptide arrays for human targets and phosphorylation-specific antibodies. Construction of peptide arrays relied on information from phosphorylation databases. The following proteins were determined as significant above the threshold of 40% kinase activity inhibition or ATP displacement to the Kinase domain site.

T1 sequence (P16591 whole entry, one chain of several): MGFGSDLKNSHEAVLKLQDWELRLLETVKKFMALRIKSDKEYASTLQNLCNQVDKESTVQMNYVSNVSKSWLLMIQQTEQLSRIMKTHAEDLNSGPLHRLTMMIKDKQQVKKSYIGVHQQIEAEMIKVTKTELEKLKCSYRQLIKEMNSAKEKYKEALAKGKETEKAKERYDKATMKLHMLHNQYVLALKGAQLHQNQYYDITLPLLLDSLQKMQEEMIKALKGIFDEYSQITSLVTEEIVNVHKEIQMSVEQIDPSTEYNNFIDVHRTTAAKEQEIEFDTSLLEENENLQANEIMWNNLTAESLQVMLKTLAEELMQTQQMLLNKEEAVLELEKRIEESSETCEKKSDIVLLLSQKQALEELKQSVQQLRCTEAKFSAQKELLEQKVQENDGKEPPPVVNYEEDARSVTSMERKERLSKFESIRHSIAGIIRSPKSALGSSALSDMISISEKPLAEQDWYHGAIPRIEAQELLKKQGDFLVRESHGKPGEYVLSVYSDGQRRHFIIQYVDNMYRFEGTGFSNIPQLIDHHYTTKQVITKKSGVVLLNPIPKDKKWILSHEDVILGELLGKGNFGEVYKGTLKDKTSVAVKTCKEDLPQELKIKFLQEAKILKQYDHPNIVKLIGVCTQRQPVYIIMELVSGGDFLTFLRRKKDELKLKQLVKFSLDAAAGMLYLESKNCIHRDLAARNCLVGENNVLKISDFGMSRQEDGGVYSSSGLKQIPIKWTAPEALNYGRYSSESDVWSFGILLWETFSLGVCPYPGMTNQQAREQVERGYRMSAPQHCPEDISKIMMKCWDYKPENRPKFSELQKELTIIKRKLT
MAPK8 (JNK1), sequence (P45983 whole entry): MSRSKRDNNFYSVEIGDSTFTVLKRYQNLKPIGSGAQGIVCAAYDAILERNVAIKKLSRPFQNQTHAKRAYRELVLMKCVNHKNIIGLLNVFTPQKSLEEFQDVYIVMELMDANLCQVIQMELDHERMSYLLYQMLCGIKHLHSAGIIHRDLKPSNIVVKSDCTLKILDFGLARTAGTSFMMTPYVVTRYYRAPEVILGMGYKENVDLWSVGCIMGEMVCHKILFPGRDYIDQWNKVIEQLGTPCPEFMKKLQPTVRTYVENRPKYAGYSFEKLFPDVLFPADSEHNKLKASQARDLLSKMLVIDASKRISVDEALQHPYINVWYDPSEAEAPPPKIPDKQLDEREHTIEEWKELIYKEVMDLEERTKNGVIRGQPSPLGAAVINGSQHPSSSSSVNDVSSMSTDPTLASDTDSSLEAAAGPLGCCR

In the case of `CC(C)c1ccc(-c2cn3nc(N4CCC(CN5CCN(C)CC5)CC4)sc3n2)cc1` [compound 0260, tartarate salt of 6-(4-isopropyl-phenyl)-2-{4-[(4-methyl-piperazin-1-yl)methyl]piperidin-1-yl}-imidazo [2,1-b][1,3,4]thiadiazole], in data set [1] (24 h and 48 h, same conditions as SW620), the “cell death / cytotoxic effect in normal fibroblasts” value is on record as “no death was seen; also recorded: Almost no cytotoxic effect”. The “sensitivity of normal cells lower than SW620” value in data set [1] (Hfb 72 h vs SW620) turned out to be 50 fold. For the same compound, the negative logarithm of the EC50 (pEC50) in data set [1] (Homo sapiens, Fibroblast, Hfb, 0-20 μM, 72 h) is 4.70. In addition, the “poly-ADPr / PARP-1 poly-ADP-ribosylation activity” value in data set [2] was “induction of poly-ADPr; also recorded: significant increase”. Besides, the “association of Fer with PARP-1” value in data set [3] is on record as “dissociated Fer from PARP-1”. Further, in data set [4] (daily injection), the “toxic effects (blood markers of liver and kidney functions, blood electrolytes)” value is on record as “did not cause any toxic effects or adverse side effects”. In addition, the “histopathology of heart, kidneys and liver” value in data set [4] (mouse, in vivo) is recorded as “failed to detect any abnormalities related to toxicity”. Moreover, the “effect on animal's weight” value in data set [4] (xenograft experiments) is given as “no significant effect”. Moreover, in data set [5] (5 min), the “percentage of sperm cells exhibiting progressive motility” value is given as “significantly decreased”. Besides, in data set [5] (30 min), the progressive motility result is “practically reduced to zero” and the total motility result was “practically reduced to zero”. Moreover, the “kinase activity inhibition or ATP displacement” value in data set [6] was more than 40%.
